Results published in publication PMC9738179, “New Nucleic Base-Tethered Trithiolato-Bridged Dinuclear Ruthenium(II)-Arene Compounds: Synthesis and Antiparasitic Activity” (Molecules, 2022).
Values joined by “and” are separate entries in the source; they are usually repeats but may differ in a detail not shown here. Equal entries are not always repeated.

What was measured:
[1] = tested on: T. gondii β-gal tachyzoites; test: Dose-response study (IC50) against T. gondii β-gal tachyzoites; type: cell-based, Toxoplasma gondii; conditions: 8 serial concentrations 0.007-1 µM, 72 h
Method: (§1) The screening cascade for the compounds was described in former studies. All compounds were prepared as 1 mM stock solutions from powder, in dimethyl sulfoxide (DMSO, Sigma, St. Louis, MO, USA). For in vitro activity and cytotoxicity assays, HFF were seeded at 5 × 10^3/well and allowed to grow to confluence in phenol-red free culture medium at 37 °C and 5% CO2. T. gondii tachyzoites were released from host cells, and HFF monolayers were infected with freshly isolated parasites (1 × 10^3/well), and compounds were added concomitantly with infection.
For the dose-response study (IC50 values), measurements for T. gondii β-gal were performed. The selected compounds were added concomitantly with infection in 8 serial concentrations 0.007, 0.01, 0.03, 0.06, 0.12, 0.25, 0.5, and 1 μM.
(§2) To measure the activity of the tested compound on T. gondii β-gal parasites, after a period of 72 h of culture at 37 °C/5% CO2, the culture medium was aspirated, and cells were permeabilized by adding 90 μL PBS (phosphate buffered saline) with 0.05% Triton X-100. Next, 10 μL of 5 mM chlorophenolred-β-D-galactopyranoside (CPRG; Roche Diagnostics, Rotkreuz, Switzerland, substrate for the β-galactosidase) in PBS were added. Release of chlorophenol red was measured at 570 nm using an EnSpire® multimode plate reader (PerkinElmer, Inc., Waltham, MA, USA). A 100% proliferation of T. gondii β-gal was assigned to control parasites treated only with DMSO. For the primary screening at 0.1 and 1 μM, the activity was measured as the release of chlorophenol red over time and was calculated as percentage from the respective DMSO treated control, which represented 100% of T. gondii β-gal growth.
For the IC50 assays, the activity measured as the release of chlorophenol red over time was proportional to the number of live parasites down to 50 per well as determined in pilot assays. IC50 values were calculated after the logit-log-transformation of relative growth and subsequent regression analysis. All calculations were performed using the corresponding software tool contained in the Excel software package (Microsoft, Redmond, WA, USA).

[2] = tested on: human foreskin fibroblasts (HFF); test: Cytotoxicity in non-infected HFF by alamarBlue assay; type: cell-based
Method: as §1
Cytotoxicity assays using uninfected confluent HFF host cells were performed by the alamarBlue assay as previously reported. Confluent HFF monolayers in 96 well-plates were exposed to 0.1, 1, and 2.5 μM of each compound. Non-treated HFF as well as DMSO controls (0.01%, 0.1%, and 0.25%) were included. After 72 h of incubation at 37 °C/5% CO2, the medium was removed, and the plates were washed once with PBS. Resazurin suspended in PBS to a final concentration of 0.01 g/L was added to each well (200 μL/well). Fluorescence was measured at excitation wavelength 530 nm and emission wavelength […] using an EnSpire® multimode plate reader (PerkinElmer, Inc, Waltham, MA, USA). The cytotoxicity values were calculated as percentage of the respective DMSO control, which represented 100% of HFF viability.

[3] = tested on: T. gondii β-gal tachyzoites; test: Primary screening: T. gondii β-gal proliferation in HFF monolayers at 0.1 and 1 µM (CPRG readout); type: cell-based, Toxoplasma gondii; conditions: tachyzoites cultured in HFF, 72 h, relative to DMSO control
Method: as §1
In the primary screening, HFF monolayers infected with T. gondii β-gal were treated with 0.1 and 1 µM of each compound, or the corresponding concentration of DMSO (0.01 or 0.1%, respectively) as controls and were incubated for 72 h at 37 °C/5% CO2 as previously described.
as §2

[4] = 0.1 µM, non-infected HFF, 72 h, relative to DMSO control, triplicate
[5] = 2.5 µM, control 0.25% DMSO = 100%, six replicates
[6] = 1 µM, non-infected HFF, 72 h, relative to DMSO control, triplicate

Row | Compound | IC50 [1] | HFF Viability (%) [2, 4] | HFF Viability (%) [2, 5] | T. gondii β-gal Growth (%) ([3]; 1 µM) | HFF Viability (%) ([2]; 0.1 µM) | HFF Viability (%) ([2]; 1 µM) | HFF Viability (%) ([2]; 2.5 µM) | T. gondii β-gal Growth (%) ([3]; 0.1 µM) | HFF Viability (%) [2, 6]
1 | CC(C)(C)c1ccc(C[S+]2[Ru-]3[S+](Cc4ccc(C(C)(C)C)cc4)[Ru-]2[S+]3c2ccc(N=[N+]=[N-])cc2)cc1.Cc1ccc(C(C)C)cc1.Cc1ccc(C(C)C)cc1.[Cl-] (stereo not shown) [Compound 10] | 0.064 µM | 94 ± 1% | 38% | 1 ± 0% |  |  |  |  | 
2 | CC(C)(C)c1ccc(C[S]2[Ru]3[S](Cc4ccc(C(C)(C)C)cc4)[Ru+]2[S]3c2ccccc2Cn2cc(CO)nn2)cc1.Cc1ccc(C(C)C)cc1.Cc1ccc(C(C)C)cc1.[Cl-] [Compound 36] | 0.111 µM | 115 ± 1% | low toxicity and medium toxicity and 77% | 0 ± 0% |  |  |  |  | 
3 | CC(C)(C)c1ccc(C[S]2[Ru]3[S](Cc4ccc(C(C)(C)C)cc4)[Ru+]2[S]3c2ccccc2Cn2cc(Cn3cnc4c(N)ncnc43)nn2)cc1.Cc1ccc(C(C)C)cc1.Cc1ccc(C(C)C)cc1.[Cl-] [Compound 22] | 0.108 µM |  |  | 1 ± 0% | 102 ± 0% | 77 ± 2% | 52% | 79 ± 3% | 
4 | CC(C)(C)c1ccc(C[S]2[Ru]3[S](Cc4ccc(C(C)(C)C)cc4)[Ru+]2[S]3c2ccc(-n3cc(CO)nn3)cc2)cc1.Cc1ccc(C(C)C)cc1.Cc1ccc(C(C)C)cc1.[Cl-] [Compound 38] | 0.128 µM |  |  | 0 ± 0% | 104 ± 1% | 71 ± 1% | 59% | 42 ± 2% | 
5 | Nc1ncnc2c1ncn2CCO [Compound 14A, 9-(2-hydroxyethyl)adenine] |  |  |  | 75 ± 11% |  |  |  | 104 ± 2% | 
6 | NC(=O)c1ccc(-c2cn(Cc3cc(=O)[nH]c(=O)[nH]3)nn2)cc1 [Compound 29] |  |  |  |  | 101 ± 1% |  |  |  | 
7 | CC(C)(C)c1ccc(C[S]2[Ru]3[S](Cc4ccc(C(C)(C)C)cc4)[Ru+]2[S]3c2ccccc2Cn2cc(-c3ccc(CO)cc3)nn2)cc1.Cc1ccc(C(C)C)cc1.Cc1ccc(C(C)C)cc1.[Cl-] [Compound 35] |  |  |  | 0 ± 0% | 89 ± 0% |  |  | 1 ± 0% | 
8 | CC(C)(C)c1ccc(C[S]2[Ru]3[S](Cc4ccc(C(C)(C)C)cc4)[Ru+]2[S]3c2ccccc2Cn2cc(-c3ccccc3)nn2)cc1.Cc1ccc(C(C)C)cc1.Cc1ccc(C(C)C)cc1.[Cl-] [Compound 34] | 0.092 µM | 96 ± 1% | highly toxic and 3% | 1 ± 0% |  |  |  | 7 ± 0% | 70 ± 1%
9 | Cc1ccc(C(C)C)cc1.Cc1ccc(C(C)C)cc1.Cc1cn(Cc2cn(Cc3ccccc3[S+]3[Ru-]4[S+](Cc5ccc(C(C)(C)C)cc5)[Ru-]3[S+]4Cc3ccc(C(C)(C)C)cc3)nn2)c(=O)[nH]c1=O.[Cl-] (stereo not shown) [Compound 20] | 0.363 µM |  |  | 1 ± 0% | 100 ± 2% | 71 ± 2% | 39% | 102 ± 0% | 
10 | C#Cc1ccc(C(=O)Nc2ccc([S+]3[Ru-]4[S+](Cc5ccc(C(C)(C)C)cc5)[Ru-]3[S+]4Cc3ccc(C(C)(C)C)cc3)cc2)cc1.Cc1ccc(C(C)C)cc1.Cc1ccc(C(C)C)cc1.[Cl-] (stereo not shown) [Compound 6] | 0.288 µM | 95 ± 1% | 17% | 6 ± 1% |  |  |  | 112 ± 1% | 
11 | CC(C)(C)c1ccc(C[S]2[Ru]3[S](Cc4ccc(C(C)(C)C)cc4)[Ru+]2[S]3c2ccc(-n3cc(Cn4ccc(N)nc4=O)nn3)cc2)cc1.Cc1ccc(C(C)C)cc1.Cc1ccc(C(C)C)cc1.[Cl-] [Compound 25] |  |  |  |  | 94 ± 9% | 91 ± 8% |  | 82 ± 6% | 
12 | C#CCCCC(=O)Nc1ccc([S+]2[Ru-]3[S+](Cc4ccc(C(C)(C)C)cc4)[Ru-]2[S+]3Cc2ccc(C(C)(C)C)cc2)cc1.Cc1ccc(C(C)C)cc1.Cc1ccc(C(C)C)cc1.[Cl-] (stereo not shown) [Compound 5] | 0.038 µM | 101 ± 0% | 34% | 0 ± 0% |  |  |  | 21 ± 2% | 
13 | CC(C)(C)c1ccc(C[S+]2[Ru-]3[S+](Cc4ccc(C(C)(C)C)cc4)[Ru-]2[S+]3c2ccccc2CN=[N+]=[N-])cc1.Cc1ccc(C(C)C)cc1.Cc1ccc(C(C)C)cc1.[Cl-] (stereo not shown) [Compound 9] | 0.048 µM | 96 ± 1% | 11% | 1 ± 1% |  |  |  |  | 
14 | CC(C)(C)c1ccc(C[S]2[Ru]3[S](Cc4ccc(C(C)(C)C)cc4)[Ru+]2[S]3c2ccc(CC(=O)OCc3cn(Cc4cc(=O)[nH]c(=O)[nH]4)nn3)cc2)cc1.Cc1ccc(C(C)C)cc1.Cc1ccc(C(C)C)cc1.[Cl-] [Compound 30] | 0.659 µM | 114 ± 0% | 97% |  |  |  |  |  | 
15 | CC(C)(C)c1ccc(C[S]2[Ru]3[S](Cc4ccc(C(C)(C)C)cc4)[Ru+]2[S]3c2ccc(CC(=O)NCc3cn(Cc4cc(=O)[nH]c(=O)[nH]4)nn3)cc2)cc1.Cc1ccc(C(C)C)cc1.Cc1ccc(C(C)C)cc1.[Cl-] [Compound 31] |  |  |  |  | 99 ± 3% |  |  |  | 
16 | CC(C)(C)c1ccc(C[S]2[Ru]3[S](Cc4ccc(C(C)(C)C)cc4)[Ru+]2[S]3c2ccc(-n3cc(-c4ccccc4)nn3)cc2)cc1.Cc1ccc(C(C)C)cc1.Cc1ccc(C(C)C)cc1.[Cl-] [Compound 37] | 0.096 µM | 99 ± 1% | highly toxic and 17% | 0 ± 0% |  |  |  | 13 ± 1% | 71 ± 0%
17 | CC(C)(C)c1ccc(C[S]2[Ru]3[S](Cc4ccc(C(C)(C)C)cc4)[Ru+]2[S]3c2ccccc2Cn2cc(Cn3ccc(N)nc3=O)nn2)cc1.Cc1ccc(C(C)C)cc1.Cc1ccc(C(C)C)cc1.[Cl-] [Compound 21] | 0.046 µM |  |  | 0 ± 0% | 109 ± 2% | 89 ± 1% | 38% |  | 
18 | CC(C)(C)c1ccc(C[S+]2[Ru-]3[S+](Cc4ccc(C(C)(C)C)cc4)[Ru-]2[S+]3c2ccccc2Cn2cc(Cn3ccc(=O)[nH]c3=O)nn2)cc1.Cc1ccc(C(C)C)cc1.Cc1ccc(C(C)C)cc1.[Cl-] (stereo not shown) [Compound 19] | 0.46 µM | 93 ± 2% | 50% |  |  |  |  |  | 
19 | CC(C)(C)c1ccc(C[S]2[Ru]3[S](Cc4ccc(C(C)(C)C)cc4)[Ru+]2[S]3c2ccc(-n3cc(Cn4ccc(=O)[nH]c4=O)nn3)cc2)cc1.Cc1ccc(C(C)C)cc1.Cc1ccc(C(C)C)cc1.[Cl-] [Compound 23] | 0.426 µM | 100 ± 1% | 64% |  |  |  |  |  | 
